{"source": "patent US12065468B2", "about": "“Heme-binding small peptide” (priority 2021, dated 2024)", "key": {"[1]": {"conditions": "literature; read-out: KD for heme; cited from earlier work"}, "[2]": {"assay": "Biolayer interferometry of heme binding", "conditions": "compared with NCR247 (L-enantiomer)", "description": "Biotinylation of heme: Hemin was biotinylated using the method exactly as described previouslyl^16. Biotin hydrazide, DCC was purchased from Sigma. COSMOSIL™ 5C18-AR-II Packed Column, 4.6 mm I.D.×150 mm from Nacalai USA (San Diego, CA) was used to separate the products. LC-MS was used to verify the correct molecular weight (969.4 Da) of biotinylated heme (in which only one of the two propionate groups of protoheme was conjugated with biotin hydrazide) as described above.\nBiolayer interferometry: Biolayer interferometry was carried out using a ForteBio Octet RED96™ biolayer interferometer, following the manufacturer's instructions for a standard kinetic assay. Streptavidin-coated biosensor tips were incubated in 200 μl assay buffer (Water [pH 7.4]), each for 60s. Then biotinylated heme (or NCR247 in the case of Fe(III) PPIX dimethyl ester chloride) was loaded onto each biosensor tip at the defined concentration until the binding signal reached a value of >1.4. Biosensor tip loading was followed by incubation in assay buffer for 60s. Association between the ligand-heme and the analyte-various variants of NCR247 (Increasing concentrations in assay buffer) was observed over a time frame of ˜116 s, in assay buffer. To stop binding kinetics for dissociation, the biosensor tips were placed back into assay buffer not containing any analyte, for 120 s. Curves were fit with Global fit analysis and Data analysis and KD calculation was performed using Fortebio™ data analyses 8.2 software as described previously^89."}, "Sinorhizobium meliloti [3]": {"test_system": "Sinorhizobium meliloti", "assay": "S. meliloti cell death in 24 hours (plating)", "type": "cell-based"}, "[4]": {"assay": "UV-Vis spectroscopy / colour change on heme addition", "type": "binding", "conditions": "heme added to peptide, ferric heme", "protocol": "Heme preparation: Hemin solutions were always prepared in 0.1 M NaOH and used within 30 min of preparation. 1:1000 and 1:500 dilution of the stock solution was made and stock concentration was measured by pyridine hemochrome assay as described previously^85 by measuring the absorption at 557 nm using the extinction coefficient of pyridine hemochromogen (34.7 mM^−1 cm^−1).\nUV-VIS spectroscopy: All absorption spectra were collected in a Tecan Spark™ 10 M microplate reader using black polystyrene 96-well plates. Absorbance from 300 nm to 700 nm was recorded with a 5 nm interval after an initial shaking at 100 rpm for 15 secs. Heme binding to synthesized peptide: Water (pH 7.4) was used in all reactions and was first added to the wells. Peptides solubilized in water were added and then heme solubilized in 0.1 M NaOH was added, mixed thoroughly and measurements were taken immediately. Peptide and heme volume were kept to a maximum of 5 ul in volume. For all the absorption curves (except Extended FIG. 3a) […] was used. The same was also repeated with 0.1 M Tris buffer (pH 7.4) as a base buffer instead of water."}, "Sinorhizobium meliloti [5]": {"test_system": "Sinorhizobium meliloti", "assay": "S. meliloti growth curve", "type": "cell-based", "conditions": "increasing amounts of peptide; minimal medium", "protocol": "Growth curve: All growth curve experiments were performed in a Tecan SPARK 10M microplate reader using polystyrene flat bottomed, non-treated, sterile 96 well plates. Overnight cultures grown in LBMC were washed and were subcultured (1:100 dilution) in minimal medium supplemented with respective iron concentrations. The plates were programed to continuously shake at 150 rpm and temperature maintained at 30° C. Optical density was measured at 600 nm every 60 minutes."}}, "data": [{"substance": "Aβ (1-42) peptide: human Aβ amyloid peptide derived from cleavage of the amyloid precursor protein", "values": [{"measurement": "Kd", "setting": "[1]", "result": 140, "unit": "nM"}]}, {"substance": "RNGCIVDARCPYQKCSYPLYCRRR [M. sativa (alfalfa) NCR247 ortholog, NCR247 ortholog of M. sativa with a 4-amino acid change]", "values": [{"measurement": "heme binding affinity, in words", "setting": "[2]", "result": "binds heme with the same affinity"}]}, {"substance": "RNGCIVDPRCPYQQCRRPLYCAAA [NCR247 (RRR to AAA mutant)]", "values": [{"measurement": "Cell death in 24 hours", "setting": "Sinorhizobium meliloti [3]; 6 uM peptide", "result": "No cell death observed"}, {"measurement": "reduction in number of S. meliloti cells (bactericidal effect)", "setting": "Sinorhizobium meliloti [3]; incubated 24 hours, plated in non-selective medium", "result": "causes no reduction in number of S. meliloti cells"}, {"measurement": "heme binding (absorption peaks 366 nm, ~450 nm; colour change)", "setting": "[4]", "result": "binds heme"}, {"measurement": "inhibition of growth of S. meliloti (bacteriostatic effect)", "setting": "Sinorhizobium meliloti [5]", "result": "does not inhibit the growth of Sinorhizobium meliloti"}]}, {"substance": "haempexin: heme scavenger", "values": [{"measurement": "Kd", "setting": "[1]", "result": "< 1000", "unit": "nM"}]}, {"substance": "hemoglobin", "values": [{"measurement": "Kd", "setting": "[1]", "result": 10, "unit": "nM"}]}]}
